US20230000982A1, “COMPOSITION FOR PREVENTING OR TREATING CANCER, CONTAINING NOVEL TRIFLUOROMETHYL PHENYL PYRAZOLE DERIVATIVE AS ACTIVE INGREDIENT” (KOREA INSTITUTE OF RADIOLOGICAL & MEDICAL SCIENCES, priority 2019, published 2023)

Assays:
[1] = test system: breast cancer cell lines BT549, T47D and MCF7; experiment: Clonogenic assay, combination of KRCT-1 and radiation; format: cell-based, Human; conditions: 2.5 μM KRCT-1 + 2.5 Gy radiation; compared to DMSO group
Description: A clonogenic assay was performed to confirm the effect of the combination of KRCT-1 and radiation. To perform clonogenic assay, breast cancer cell lines BT549, T47D and MCF7 were treated with 2.5 μM of KRCT-1 compound, and 2.5 Gy radiation was used using Biobeam GM8000 (Gamma-Gamma-Service Medical GmbH, Leipzig, Germany). The experimental technique for the remaining colony formation was performed in the same manner as in the above Example, and was shown in FIG. 6a. In the group treated with KRCT-1, the radiation treatment effect of the two cancer cell lines was significant compared to the group treated with DMSO, confirming that the number of cancer cell colonies decreased.

Breast cancer cells MCF7 = experiment: Tumorsphere forming assay; format: cell-based, Human; conditions: cultured for 14 days; various breast cancer cell lines
Description: (§1) Human-derived tumor cell lines and breast cancer cell lines MCF7 and T47D, BT549, MDA-MB231, and MDA-MB453 was cultured in a DMEM medium (Corning, N.Y., USA), containing 10% fetal bovine serum (FBS; HyClone, South Logan, Utah) and 1% penicillin/streptomycin at 37° C. and 5% CO2 conditions.
In order to determine whether the selected KRCT-1 can effectively reduce the tumorsphere formation in cancer cells, tumorsphere forming assay was performed. Breast cancer cells MCF7 (2500-10000 cells) were suspended in serum-free DMEM/F12 (welGENE), containing 1% penicillin, B-27 (1:50; invitrogen), 20 ng/mL epidermal growth factor (R&D Systems) and 20 ng/mL fibroblasts growth factors (R&D Systems) on low adhesion plates and cultured. After 24 hours had elapsed, the cells were treated with the compound and cultured for 14 days, and then the diameter of the tumorspheres was measured and quantified, which is shown in FIG. 3D.

Trk-A kinase [2] = target: T1, Trk-A kinase (Homo sapiens, UniProt P04629); experiment: In vitro kinase assay of Trk-A; format: biochemical; parameters: purchased Eurofins Pharma Discovery Services (commissioned via Goma Biotech); conditions: serially diluted 3-fold from 100 μM; FIG. 7b
Description: To measure the selective reactivity of KRCT-1 to a specific kinase, in vitro kinase assay profiling was commissioned to Goma Biotech (Seoul, Korea), and the enzyme reaction experiment was performed at Eurofins Pharma Discovery Services (Scotland, UK). For kinase profiling, 104 kinase series and 10 μM KRCT-1 were used in the reaction as a broad oncology panel. To obtain the IC50 kinase assay of Trk-A, KRCT-1 serially diluted 3-fold from 100 μM was used.

[3] = test system: Breast cancer cell lines BT549, T47D, and MCF7; experiment: Western blotting of survivin and apoptosis markers; format: cell-based, Human; conditions: 0, 2.5, 5, 10, and 20 μM, 24 h
Description: Apoptosis by KRCT-1 was confirmed through Western blotting. After separation of 20 μg of protein by SDS-PAGE electrophoresis and transferred to PVDF membrane, the following specific antibodies were used: rabbit polyclonal antibodies cleaved PARP (Asp214) (#9541) and phospho-Chk2 (Thr68) (#2661; Cell Signaling Technology, MA); rabbit monoclonal antibodies caspase3 (#9664), chk2 (#6334S), survivin (#2808S); mouse monoclonal antibody caspase 9 (551246; BD Pharmingen, Calif., USA). In addition, mouse monoclonal antibody (3-actin (C4; Santa Cruz Biotechnology, Calif., USA) was used as a loading control, washed with 1×PBS/0.1% Tween 20, and HRP-binding secondary antibody and improved chemiluminescence detection system was used to detect the binding protein, and an image of the band was obtained using the Amersham Imager 600 system (GE Healthcare Life Science), which is shown in FIG. 5b.
Breast cancer cell lines BT549, T47D, and MCF7 were treated with 0, 2.5, 5, 10, and 20 μM of KRCT-1 in a dose-dependent manner for 24 h each, and the expression level of survivin essential for the survival of cancer cells and the expression levels of an apoptosis markers, clv-PARP, caspase 9 and caspase 3 were checked. According to the concentration of the treated KRCT-1, the expression levels of survivin and pro-caspase 9 in cancer cells were decreased, and it was confirmed that the truncated PARP and caspase3 increased during apoptosis. Through the above results, it was confirmed that apoptosis was activated due to KRCT-1.

[4] = test system: breast cancer cell lines BT549, T47D and MCF7; experiment: Western blotting, radiation combination effect; format: cell-based, Human; conditions: 10 μM + 3 Gy radiation, 30 h
Description: In order to confirm the synergistic effect of radiosensitivity of cancer cell lines through treatment with KRCT-1 through Western blotting experiments, 10 μM of KRCT-1 compound was treated in breast cancer cell lines BT549, T47D and MCF7, and Biobeam GM8000 (Gamma-Gamma-Service Medical GmbH, Leipzig, Germany) was used to culture for 30 h after treatment with 3 Gy radiation. For Western blotting, 20 μg of protein was isolated through SDS-PAGE electrophoresis and transferred to a PVDF membrane. The following specific antibodies were used: rabbit polyclonal antibody phospho-Chk2 (Thr68) (#2661; Cell Signaling Technology, MA); rabbit monoclonal antibody chk2 (#6334S) were used. The remaining conditions of Western blotting were performed in the same manner as in the above Example. […] Through the above results, it was confirmed that apoptosis of cancer cells appeared effectively.

BT549 cell line = experiment: Immunodeficient mouse tumor model (xenograft) transplanted with BT549; format: in vivo; conditions: 30 mg/kg intraperitoneally twice a week
Description: By subcutaneously implanting a cancer cell line into an immunodeficient mouse tumor model, it was attempted to verify whether the anticancer effect of the compound actually occurs at the in vivo level. After the tumor was formed by implanting the BT549 cell line subcutaneously in the thigh of an immunodeficient mouse, in the case that the size of the tumor reached 50˜100 mm ˜3˜, the compound was intraperitoneally injected at 30 mg/kg twice a week. The tumor volume and the mouse weight were measured 3 times a week for the control group and the KRCT-1 treatment group, respectively. […] Western blotting was performed on the isolated mouse tumor for the tumor growth antigen Ki-67, which is shown B in FIG. 4b.

[5] = test system: breast cancer cell lines BT549, MCF7, T47D and MDA MB231; experiment: Colonogenic (colony formation) assay; format: cell-based, Human; conditions: 10 μM, cultured for 14 days; various breast cancer cell lines
Description: as §1
Colonogenic analysis was performed to determine whether the selected KRCT-1 could efficiently kill cancer cells. First, cells of various breast cancer cell lines BT549, MCF7, T47D and MDA MB231 (500-1000 cells) were cultured in a 60 mm culture plate, and 24 hours later, 10 μM of the compound was treated, respectively, and cultured for 14 days.

BT549 = experiment: Annexin V/PI staining FACS apoptosis analysis, BT549; format: cell-based, Human; conditions: BT549, 20 μM, 48 h
Description: (§2) After Annexin V/PI staining, FACS analysis was performed to confirm the cancer cell killing effect. Cancer cell lines MCF7 and BT549 were treated for 48 h in the presence and absence of 20 μM of KRCT-1, and analysis of Annexin V binding was performed using the Annexin V-FITC apoptosis Detection Kit (BD Biosciences, San Jose, Calif., USA) according to the manufacturer's recommended protocol. Briefly, after collecting all cells, including the cell medium, the cells were centrifuged at 1500 rpm for 5 minutes, washed with 1×PBS, resuspended at 1×10^6 cell concentration, and then 100 μl of the cell suspension was added in a 5 ml tube, and 5 μl of Annexin V-FITC and 5 μl of PI were added thereto and cultured in the dark for 15 minutes at RT. 400 μl of 1× binding buffer was added to each tube and samples were analyzed by flow cytometry. As a result, it was confirmed that MCF7 induced about 40%, BT549 induced about 23% cell death.

MCF7 = experiment: Annexin V/PI staining FACS apoptosis analysis, MCF7; format: cell-based, Human; conditions: MCF7, 20 μM, 48 h
Description: as §2

Trk-A kinase [6] = target: T1, Trk-A kinase; experiment: Western blotting of Trk-A downstream signaling (phosphorylated ERK, phosphorylated STAT3) in cancer cell lines; format: cell-based; conditions: 2.5, 5, 10, 20 μM; FIG. 7c
Description: In cancer cell lines, it was confirmed whether KRCT-1 inhibits the activity of Trk-A kinase to inhibit downstream signaling. In the case that Trk-A is activated by ligand, the MEK/ERK and STAT3 signaling pathways in the cell are activated. Using this as an indicator, changes in phosphorylated ERK and phosphorylated STAT3 were confirmed in the case that cancer cell lines were treated with KRCT-1 concentrations (2.5, 5, 10, 20 μM). For Western blotting, 20 μg of protein was isolated through SDS-PAGE electrophoresis and transferred to PVDF membrane. The following specific antibodies were used: rabbit polyclonal antibody phospho-STAT3 (Tyr705) (ab76315; Abcam, UK), mouse monoclonal antibodies phospho-ERK (Thr202/Tyr204) (sc-514302; Santa Cruz Biotechnology), ERK (sc-7383; Santa Cruz Biotechnology), and STAT3 (sc8019; Santa Cruz Biotechnology) were used. The remaining conditions of Western blotting were performed in the same manner as in the above Example.

MCF7 cells = experiment: γ-H2AX foci experiment (DNA damage) with radiation; format: cell-based, Human; conditions: 20 μM for 24 h + 2 Gy radiation, fixed at 1 h; compared to each control group
Description: To determine how KRCT-1 affects DNA damage induced by radiation, a γ-H2AX foci experiment was performed. In the case that single-stranded or double-stranded DNA is cleaved by various DNA damaging agents including radiation, γ-H2AX phosphorylation occurs and nuclear foci are generated in the cell nucleus. Using this as an index, the effect of the combination according to DNA damage was evaluated. After culturing 2.5×10^4 MCF7 cells in a 24-well plate for 48 h, KRCT-1 20 μM was treated for 24 h, and the cells were fixed at 1 h after irradiation with 2 Gy of radiation. Then, after washing with phosphate buffered saline for permeation, 4% paraformaldehyde and 0.2% Triton-X were added and reacted for 10 min each. After 1 h pretreatment with 5% fetal bovine serum, 1:100 dilution of γ-H2AX (05-656; EMD Millipore Corp., MA, USA) antibody to phosphorylated H2AX for was treated for 16 h, and it was washed 3 times with 0.1% TritonX-100/phosphate buffered saline solution (Tritonx-100/PBS). Alexa488-conjugated secondary antibody (AP132JA4, Invitrogen) was reacted for 2 h at room temperature and labeled, and phosphorylated γ-H2AX foci were photographed and analyzed with IN Cell Analyzer 6000 (GE Healthcare Life Science). […] Taken together, in cancer cells, it was confirmed that KRCT-1 is a material that can be effectively used as a radiosensitizer.

T1 sequence (P04629 33-796): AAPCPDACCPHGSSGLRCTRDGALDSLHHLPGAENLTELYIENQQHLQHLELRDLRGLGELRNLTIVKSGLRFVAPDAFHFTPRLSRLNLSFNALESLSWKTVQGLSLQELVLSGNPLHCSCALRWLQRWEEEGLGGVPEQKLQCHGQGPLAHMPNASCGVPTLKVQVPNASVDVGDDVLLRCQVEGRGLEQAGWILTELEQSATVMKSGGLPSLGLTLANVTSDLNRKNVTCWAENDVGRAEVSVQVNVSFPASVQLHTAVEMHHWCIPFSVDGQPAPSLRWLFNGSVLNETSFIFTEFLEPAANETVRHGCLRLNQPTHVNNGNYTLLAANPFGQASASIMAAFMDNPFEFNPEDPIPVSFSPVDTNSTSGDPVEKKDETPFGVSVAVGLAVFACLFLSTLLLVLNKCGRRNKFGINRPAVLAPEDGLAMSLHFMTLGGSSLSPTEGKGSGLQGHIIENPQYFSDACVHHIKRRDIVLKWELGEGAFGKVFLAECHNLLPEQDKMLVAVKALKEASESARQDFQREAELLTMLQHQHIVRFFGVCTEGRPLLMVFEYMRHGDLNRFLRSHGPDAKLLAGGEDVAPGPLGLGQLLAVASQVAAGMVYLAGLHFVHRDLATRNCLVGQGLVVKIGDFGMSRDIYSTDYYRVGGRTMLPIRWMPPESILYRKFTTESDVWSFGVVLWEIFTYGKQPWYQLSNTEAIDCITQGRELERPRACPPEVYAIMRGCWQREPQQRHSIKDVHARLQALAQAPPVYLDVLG

CN(C)S(=O)(=O)Nc1cccc(-c2cnn(-c3ccc(C(F)(F)F)cc3)c2)c1 [KRCT-1, N,N-dimethyl-N′-(3-(1-(4-(trifluoromethyl)phenyl)-1H-pyrazol-4-yl)phenyl)azanesulfonamide]
number of cancer cell colonies after radiation [1]: decreased | diameter of cancer cell tumorspheres (Breast cancer cells MCF7): significantly reduced | in vitro Trk-A kinase activity (Trk-A kinase [2]): inhibition | truncated PARP [3]: increased | truncated caspase3 [3]: increased | expression level of pro-caspase 9 ([3]; according to concentration): decreased | expression level of survivin ([3]; according to concentration): decreased | expression level of phosphorylated Chk2 after radiation treatment [4]: increased | expression level of survivin after radiation treatment [4]: decreased | expression of Ki-67 in isolated mouse tumor (Western blotting) (BT549 cell line): significantly reduced | tumor volume and size (BT549 cell line; 4 weeks after transplantation, vs control group): smaller tumor volume and size than the control group | body weight of immunodeficient mice (BT549 cell line; weight measured 3 times a week): not significantly changed | number and size of cell colonies [5]: significantly reduced | cell death (Annexin V/PI FACS) (BT549): about 23% | cell death (Annexin V/PI FACS) (MCF7): about 40% | downstream signaling of Trk-A kinase in cancer cells (Trk-A kinase [6]): inhibited | DNA damage (phosphorylated γ-H2AX foci) (MCF7 cells): DNA damage occurred in relatively many cancer cells
